Non-standard residues stand in square brackets, D forms with d. Residues, ends and D or L forms follow the SMILES beside them. *: point of attachment. AFC = O=c1cc(C(F)(F)F)c2ccc(N*)cc2o1; pNA = O=[N+]([O-])c1ccc(N*)cc1; Cbz = O=C(OCc1ccccc1)*; Sar = CNCC(=O)O
system: thrombin; test: Thrombin catalyzed hydrolysis of fluorogenic substrate (fluorescence at 500 nm); type: biochemical, human; details: fluorogenic substrate for thrombin, excitation at 400 nm
Procedure: (§1) Assays of human a-thrombin and human trypsin were performed at 25° C. in 0.05 M TRIS buffer pH 7.4, 0.15 M NaCl, 0.1% PEG. Trypsin assays also contained 1 mM CaCl2.
(§2) In certain studies with potent inhibitors (Ki <10 nM) where the degree of inhibition of thrombin was high, a more sensitive activity assay was employed. […] Concentrations of stock solutions of Z-GPR-afc were determined from measurements of absorbance at 380 nm of the 7-amino-4-trifluoromethylcoumarin produced upon complete hydrolysis of an aliquot of the stock solution by thrombin.

Row | SMILES | Km [µM]
1 | N=C(N)NCCC[C@H](NC(=O)[C@@H]1CCCN1C(=O)CNC(=O)OCc1ccccc1)C(=O)Nc1ccc2c(C(F)(F)F)cc(=O)oc2c1 [Z-GPR-afc, Cbz-Gly-Pro-Arg-7-amino-4-trifluoromethylcoumarin] (Cbz-Gly-Pro-Arg-{AFC}) | 27

target: T1, human a-thrombin (Homo sapiens, UniProt P00734); test: In vitro assay for determining proteinase inhibition (thrombin Ki); type: biochemical; details: 25° C., 0.05 M TRIS buffer pH 7.4, 0.15 M NaCl, 0.1% PEG
T1 construct: human a-thrombin
Procedure: In vitro Assay for Determining Proteinase Inhibition
as §1, §2
Activity assays were performed by diluting a stock solution of substrate at least tenfold to a final concentration <0.5 Km into a solution containing enzyme or enzyme equilibrated with inhibitor. Times required to achieve equilibration between enzyme and inhibitor were determined in control experiments. Initial velocities of product formation in the absence (V0) or presence of inhibitor (Vi) were measured. Assuming competitive inhibition, and that unity is negligible compared Km /[S], […] (where [S], [I], and e respectively represent the total concentrations, of substrate, inhibitor and enzyme), the equilibrium constant (Ki) for dissociation of the inhibitor from the enzyme can be obtained from the dependence of V0 /Vi on [I] shown in equation 1.

Row | SMILES | Ki [nM]
2 | CC(C)[C@@H](CCNc1ccncc1)NC(=O)CNS(=O)(=O)c1ccc(Cl)c(Cl)c1 [(CH3)2 CH2 -- 1 3,4-di-Cl--PhSO2 -- H] | < 1000
3 | CC(C)[C@@H](CCNc1ccncc1)NC(=O)CNS(=O)(=O)Cc1ccccc1 [(CH3)2 CH2 -- 1 BnSO2 -- H] | > 1000
4 | O=C(CNS(=O)(=O)c1ccc(Cl)cc1)N[C@H](CNc1ccncc1)Cc1ccccc1 [Bn 0 4-ClPhSO2 -- H] | > 1000
5 | CC(C)(C)OC(=O)NCC(=O)N[C@H](CNc1ccncc1)Cc1ccccc1 [Bn 0 Boc H] | > 1000
6 | O=C(CNS(=O)(=O)c1ccccc1)N[C@H](CNc1ccncc1)Cc1ccccc1 [Bn 0 PhSO2 -- H] | > 1000
7 | O=C(CNS(=O)(=O)c1ccc2ccccc2c1)N[C@H](CCNc1ccncc1)Cc1ccccc1 [Bn 1 2-naphthSO2 -- H] | < 1000
8 | O=C(CNS(=O)(=O)Cc1ccc(Cl)c(Cl)c1)N[C@H](CCNc1ccncc1)Cc1ccccc1 [Bn 1 3,4-di-Cl--BnSO2 -- H] | < 1000
9 | O=C(N[C@H](CCNc1ccncc1)Cc1ccccc1)[C@H](CO)NS(=O)(=O)c1ccc(Cl)c(Cl)c1 [Bn 1 3,4-di-Cl--PhSO2 -- (S)-CH2 OH] | < 1000
10 | O=C(CNS(=O)(=O)c1ccc(Cl)c(Cl)c1)N[C@H](CCNc1ccncc1)Cc1ccccc1 [Bn 1 3,4-di-Cl--PhSO2 -- H] | < 1000
11 | O=C(CNS(=O)(=O)Cc1ccc(C(F)(F)F)cc1)N[C@H](CCNc1ccncc1)Cc1ccccc1 [Bn 1 4-CF3 --BnSO2 -- H] | < 1000
12 | O=C(CNS(=O)(=O)Cc1ccc(Cl)cc1)N[C@H](CCNc1ccncc1)Cc1ccccc1 [Bn 1 4-Cl--BnSO2 -- H] | < 1000
13 | O=C(CNS(=O)(=O)c1ccc(Cl)cc1)N[C@H](CCNc1ccncc1)Cc1ccccc1 [Bn 1 4-Cl--PhSO2 -- H] | < 1000
14 | COc1cc(C)c(S(=O)(=O)NCC(=O)N[C@H](CCNc2ccncc2)Cc2ccccc2)c(C)c1C [Bn 1 4-OCH3-2,3,6-MePhSO2 -- H] | < 1000
15 | C[C@@H](NS(=O)(=O)Cc1ccccc1)C(=O)N[C@H](CCNc1ccncc1)Cc1ccccc1 [Bn 1 BnSO2 -- (R)-CH3] | > 1000
16 | CS(=O)(=O)CC[C@H](NS(=O)(=O)Cc1ccccc1)C(=O)N[C@H](CCNc1ccncc1)Cc1ccccc1 [Bn 1 BnSO2 -- (S)- CH2 CH2 SO2 CH3] | < 1000
17 | CSCC[C@H](NS(=O)(=O)Cc1ccccc1)C(=O)N[C@H](CCNc1ccncc1)Cc1ccccc1 [Bn 1 BnSO2 -- (S)-CH2 CH2 SCH3] | < 1000
18 | C[C@H](NS(=O)(=O)Cc1ccccc1)C(=O)N[C@H](CCNc1ccncc1)Cc1ccccc1 [Bn 1 BnSO2 -- (S)-CH3] | < 1000
19 | O=C(CNS(=O)(=O)Cc1ccccc1)N[C@H](CCNc1ccncc1)Cc1ccccc1 [Bn 1 BnSO2 -- H] | < 1000
20 | NC(Cc1ccc(Cl)cc1)C(=O)N[C@H](CCNc1ccncc1)Cc1ccccc1 (some centres unmarked) [Bn 1 H 4-ClBn--] | < 1000
21 | O=C(CNS(=O)(=O)C=Cc1ccccc1)N[C@H](CCNc1ccncc1)Cc1ccccc1 [Bn 1 PhCH=CHSO2 -- H] | < 1000
22 | O=C(CNS(=O)(=O)c1ccccc1)N[C@H](CNc1ccncc1)CC1CCCCC1 [c-hexylCH2 -- 0 PhSO2 -- H] | > 1000

system: human trypsin; test: Hydrolysis of p-nitroanilide substrate by human trypsin (405 nm); type: biochemical; details: substrate for human trypsin, 25° C., pH 7.4, 1 mM CaCl2
Procedure: as §1

Row | SMILES | Km [µM]
23 | CNCC(=O)N1CCC[C@H]1C(=O)N[C@@H](CCCNC(=N)N)C(=O)Nc1ccc([N+](=O)[O-])cc1 [sar-PR-pna, sarcosine-Pro-Arg-p-nitroanilide] (H-[Sar]-Pro-Arg-pNA) | 59

From patent publication US6133297A, “Thrombin inhibitors” (Merck & Co., Inc., priority 1998, dated 2000)
